Measured values from patent US12583835B2, “Crystal form of nitroxoline prodrug, pharmaceutical composition containing same, and preparation method therefor and application thereof” (Jiangsu Yahong Meditech Co., Ltd., priority 2020, dated 2026).
Where “and” joins values, the source holds several entries; their conditions need not be identical. Equal entries are not always repeated.

Tests used:
[1] = human; single-arm, open-label, multi-center phase II clinical trial; cited from earlier work
[2] = Pharmacokinetic assay in dogs; format: in vivo; settings: beagles
Text: Nitroxoline is mainly metabolized by Phase II metabolism in the liver with a high metabolism rate, thus the in vivo half-life is short. In this experiment, after a single intravenous or oral administration of nitroxoline and the compound obtained in Example 1 to dogs, the changes in the concentration of the compound nitroxoline in dog plasma were studied, so as to evaluate the in vivo pharmacokinetic behaviors of nitroxoline and the compound obtained in Example 1.
Male beagles (Beijing Marshall Bioresources Co., Ltd., laboratory animal production license No.: SCXK (Beijing) 2016-0001, laboratory animal certificate No.: 11400600001728), 3 beagles per group, weight 10-13 kg, 20-22 months old, were fasted overnight before drug administration with free access to water, and food was given 4 hours after drug administration. The compound to be tested was put into an EP tube, dimethyl sulfoxide, Solutol® and sterile water for injection (the volume ratio of the three was 1:2:17, v:v:v) were added, and the EP tube was sonicated for 20 minutes to fully dissolve the compound (formulation concentration of the compound: 0.005 mmol/mL). The intravenous dose was 0.01 mmol/kg, and the oral dose was 0.1 mmol/kg. 0.3 ml of whole blood was collected from the jugular vein before drug administration (0 hour) and 0.0833, 0.25, 0.5, 0.75, 1, 2, 4, 6, 8, 10 and 12 hours after drug administration (the sampling points were adjusted according to the situation) and placed in a centrifuge tube containing EDTA-K2 (Aldrich Reagents) for anticoagulation, which was placed in crushed ice after sample collection. The tube was centrifuged at 1530 g for 10 minutes within 0.5 hours of sample collection. All clean plasma were isolated and placed in another clean centrifuge tube, which was placed in a −20° C. refrigerator until testing.
A series of solutions for standard curve was prepared. To 10 μL of solutions for standard curve and samples was added 1000 μL of internal standard working solution (a solution of 5 ng/mL verapamil (Aldrich Reagents), 50 ng/mL glibenclamide (Aldrich Reagents) and 50 ng/mL diclofenac (Aldrich Reagents) in acetonitrile) was added, and the resulting solution was vortexed for 5 minutes. After centrifuging at 4° C., 3700 rpm for 10 minutes, 60 μL of the supernatant was collected into a sample tube and mixed well with 120 μL of water, and 10 μL of the mixed solution was injected into the LC/MS system for determination. Pharmacokinetic parameters were calculated using WinNonlin V6.2 non-compartmental model.

[3] = Pharmacokinetic assay in rats; format: in vivo; settings: SD rats, oral 0.1 mmol/kg, 24 h, individual animals
Text: In this experiment, after a single intravenous or oral administration of nitroxoline and the compound obtained in Example 1 to rats, the changes in the concentration of the compound nitroxoline in rat plasma were studied, so as to evaluate the in vivo pharmacokinetic behaviors of nitroxoline and the compound obtained in Example 1 in rats.
Male SD rats (Beijing Vital River Laboratory Animal Technology Co., Ltd., laboratory animal production license No.: SCXK (Beijing) 2016-0006, laboratory animal certificate No.: 11400700325643), 3 rats per group, weight 180-250 g, 6-7 weeks old, were fasted overnight before drug administration with free access to water, and food was given 4 hours after drug administration. The compound to be tested was put into an EP tube, 1.017 mL dimethyl sulfoxide, 2.035 mL Solutol® and sterile water for injection (the volume ratio of the three was 1:2:17, v:v:v) were added, and the EP tube was sonicated for 20 minutes to fully dissolve the compound (formulation concentration of the compound: 0.005 mmol/mL). […]
Sample to be tested: to 50 μL of plasma sample to be tested was added 5 μL of diluted working solution, then 150 μL of internal standard working solution (a solution of 2 ng/mL diphenhydramine in acetonitrile), and the resulting solution was vortexed for 1 minute. […] Pharmacokinetic parameters were calculated using WinNonlin V6.2 non-compartmental model.

AUC0-inf of nitroxoline in plasma ([2]; intravenous 0.01 mmol/kg): 3300 ng*hmL^−1
AUC0-inf of nitroxoline in plasma ([2]; oral 0.1 mmol/kg): 4780 ng*hmL^−1
Plasma concentration of nitroxoline [3]: <5.0 ng/mL (2×) and 14.6 ng/mL
SMILES: O=[N+]([O-])c1ccc(O)c2ncccc12 [Nitroxoline, 5-nitro-8-hydroxyquinoline]
half-life [1]: 1.22 to 1.44 h
